Key:
Format in all cases: in vivo
[1] = test system: palmer (palmer amaranth, palmer pigweed, Amaranthus palmeri); test: Test A postemergence application, visual injury rating 0-100
How it was run: (§1)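 Compounds formulated in a non-phytotoxic solvent with surfactant are sprayed onto soil of freshly planted loam-sand pots ahead of emergence, or onto emerged plants 2-10 cm tall. After a 10-day greenhouse period, each species is scored visually for injury against untreated controls.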

kochia (Bassia scoparia) [2] = test: as above
How it was run: as §1

[3] = test system: blackgrass (Alopecurus myosuroides); test: as above
How it was run: as §1

[4] = test system: green foxtail (Setaria viridis); test: as above
How it was run: as §1

[5] = test system: ryegrass, Italian (italian ryegrass, Lolium multiflorum); test: as above
How it was run: as §1

[6] = test system: oat, wild (wild oat, Avena fatua); test: as above
How it was run: as §1

[7] = test system: horseweed (Erigeron canadensis); test: as above
How it was run: as §1

soybean (Glycine max) [8] = test: as above
How it was run: as §1

[9] = test system: wheat (Triticum aestivum); test: as above
How it was run: as §1

corn (Zea mays) [10] = test: as above
How it was run: as §1

[11] = test system: barnyardgrass (Echinochloa crus-galli); test: as above
How it was run: as §1

[12] = test system: ragweed (common ragweed, Ambrosia artemisiifolia); test: as above
How it was run: as §1

[13] = test system: sedge, umbrella (small-flower umbrella sedge, Cyperus difformis); test: Test B flooded paddy test, visual plant response rating 0-100; conditions: 250 g ai/ha, Flood, applied to paddy water, evaluated after 13 days
How it was run: (§2)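 Compounds applied to standing paddy water (3 cm above soil, maintained for the test duration) on 2-leaf-stage plants; visual rating vs controls at 13 days, greenhouse.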

[14] = test system: barnyardgrass (Echinochloa crusgalli); test: as above; conditions: 250 g ai/ha, Flood, applied to paddy water, evaluated after 13 days
How it was run: as §2

rice (Oryza sativa) = test: as above; conditions: 250 g ai/ha, Flood, applied to paddy water, evaluated after 13 days
How it was run: as §2

[15] = test system: ducksalad (Heteranthera limosa); test: as above; conditions: 250 g ai/ha, Flood, applied to paddy water, evaluated after 13 days
How it was run: as §2

[16] = test system: palmer (palmer amaranth, palmer pigweed, Amaranthus palmeri); test: Test A preemergence soil spray, visual injury rating 0-100; conditions: 10 days
How it was run: as §1

kochia (Bassia scoparia) [17] = test: as above; conditions: 10 days
How it was run: as §1

[18] = test system: blackgrass (Alopecurus myosuroides); test: as above; conditions: 10 days
How it was run: as §1

[19] = test system: green foxtail (Setaria viridis); test: as above; conditions: 10 days
How it was run: as §1

[20] = test system: ryegrass, Italian (italian ryegrass, Lolium multiflorum); test: as above; conditions: 10 days
How it was run: as §1

[21] = test system: oat, wild (wild oat, Avena fatua); test: as above; conditions: 10 days
How it was run: as §1

soybean (Glycine max) [22] = test: as above; conditions: 10 days
How it was run: as §1

[23] = test system: wheat (Triticum aestivum); test: as above; conditions: 10 days
How it was run: as §1

corn (Zea mays) [24] = test: as above; conditions: 10 days
How it was run: as §1

[25] = test system: barnyardgrass (Echinochloa crus-galli); test: as above; conditions: 10 days
How it was run: as §1

[26] = test system: ragweed (common ragweed, Ambrosia artemisiifolia); test: as above; conditions: 10 days
How it was run: as §1

[27] = 62 g ai/ha, postemergence, 10 days, 0 = no effect, 100 = complete control
[28] = Postemergence, 16 g ai/ha, greenhouse 10 days, 0 no effect, 100 complete control
[29] = 62 g ai/ha, 0 = no effect, 100 = complete control

## CCOC(=O)C1=CCC(NC(=O)C2(C)CN(c3cc(Cl)cc(Cl)c3)C(=O)O2)C1 (centres unmarked) [Compound 114]
[1]; [27]
  Pigweed, Palmer plant response rating (0-100): 90
[1]; [28]
  Pigweed, Palmer plant response rating (0 to 100 scale): 90
Kochia (Bassia scoparia) [2]; [27]
  Kochia plant response rating (0-100): 90
Kochia (Bassia scoparia) [2]; [28]
  Kochia plant response rating (0 to 100 scale): 80
[3]; [27]
  Blackgrass plant response rating (0-100): 80
[3]; [28]
  Blackgrass plant response rating (0 to 100 scale): 50
[4]; [27]
  Foxtail, Green plant response rating (0-100): 90
[4]; [28]
  Foxtail, Green plant response rating (0 to 100 scale): 80
[5]; [27]
  Ryegrass, Italian plant response rating (0-100): 80
[5]; [28]
  Ryegrass, Italian plant response rating (0 to 100 scale): 50
[6]; [27]
  Oat, Wild plant response rating (0-100): 40
[6]; [28]
  Oat, Wild plant response rating (0 to 100 scale): 30
[7]; [27]
  Horseweed plant response rating (0-100): 70
[7]; [28]
  Horseweed plant response rating (0 to 100 scale): 20
Soybean (Glycine max) [8]; [27]
  Soybean plant response rating (0-100): 70
Soybean (Glycine max) [8]; [28]
  Soybean plant response rating (0 to 100 scale): 50
[9]; [27]
  Wheat plant response rating (0-100): 90
[9]; [28]
  Wheat plant response rating (0 to 100 scale): 80
Corn (Zea mays) [10]; [27]
  Corn plant response rating (0-100): 100
Corn (Zea mays) [10]; [28]
  Corn plant response rating (0 to 100 scale): 100
[11]; [27]
  Barnyardgrass plant response rating (0-100): 100
[11]; [28]
  Barnyardgrass plant response rating (0 to 100 scale): 100
[12]; [27]
  Ragweed plant response rating (0-100): 50
[12]; [28]
  Ragweed plant response rating (0 to 100 scale): 10
[13]
  Plant response rating, Sedge, Umbrella (0 to 100 scale, 0 is no effect and 100 is complete control): 98
[14]
  Plant response rating, Barnyardgrass (0 to 100 scale, 0 is no effect and 100 is complete control): 90
Rice (Oryza sativa)
  Plant response rating, Rice (0 to 100 scale, 0 is no effect and 100 is complete control): 55
[15]
  Plant response rating, Ducksalad (0 to 100 scale, 0 is no effect and 100 is complete control): 80
[16]; 16 g ai/ha, 0 to 100 scale
  Pigweed, Palmer plant response rating: 40
[16]; [29]
  Pigweed, Palmer plant response rating (0-100): 90
Kochia (Bassia scoparia) [17]; 16 g ai/ha, 0 to 100 scale
  Kochia plant response rating: 0
Kochia (Bassia scoparia) [17]; [29]
  Kochia plant response rating (0-100): 0
[18]; 16 g ai/ha, 0 to 100 scale
  Blackgrass plant response rating: 0
[18]; [29]
  Blackgrass plant response rating (0-100): 20
[19]; 16 g ai/ha, 0 to 100 scale
  Foxtail, Green plant response rating: 0
[19]; [29]
  Foxtail, Green plant response rating (0-100): 90
[20]; 16 g ai/ha, 0 to 100 scale
  Ryegrass, Italian plant response rating: 0
[20]; [29]
  Ryegrass, Italian plant response rating (0-100): 80
[21]; 16 g ai/ha, 0 to 100 scale
  Oat, Wild plant response rating: 0
[21]; [29]
  Oat, Wild plant response rating (0-100): 20
Soybean (Glycine max) [22]; 16 g ai/ha, 0 to 100 scale
  Soybean plant response rating: 0
Soybean (Glycine max) [22]; [29]
  Soybean plant response rating (0-100): 10
[23]; 16 g ai/ha, 0 to 100 scale
  Wheat plant response rating: 0
[23]; [29]
  Wheat plant response rating (0-100): 40
Corn (Zea mays) [24]; 16 g ai/ha, 0 to 100 scale
  Corn plant response rating: 0
Corn (Zea mays) [24]; [29]
  Corn plant response rating (0-100): 30
[25]; 16 g ai/ha, 0 to 100 scale
  Barnyardgrass plant response rating: 0
[25]; [29]
  Barnyardgrass plant response rating (0-100): 90
[26]; 16 g ai/ha, 0 to 100 scale
  Ragweed plant response rating: 0
[26]; [29]
  Ragweed plant response rating (0-100): 0

— patent US20260285850A1, “SUBSTITUTED OXAZOLIDINONES AND IMIDAZOLINONES AS HERBICIDES” (FMC CORPORATION, priority 2023, published 2026)
